Test [1] deals with astrocyte. The test can be described thus: Phagocytic activity of astrocyte with overexpressed TMEM176B on FAM-labeled amyloid-beta oligomer. Type of test: cell-based. The conditions noted are these: virus-inoculated astrocytes treated with inhibitor at 0, 10, 50 μM; FIG. 3. As to the method: A TMEM176B-infected astrocyte and a normal astrocyte were separately cultured into wells of a 96-well black cell culture plate (by SPL) at a density of 50,000 cells per well, the plate using PriGrow IV medium containing 10% FBS (by GIBCO), penicillin/streptomycin (by Thermo), 10 ng/mL of human EGF (by Abm), and L-glutamine (by Abm). Here, only the astrocytes inoculated with the TMEM176B-adeno-associated virus were treated with the TMEM176B inhibitor at concentrations of 0 μM, 10 μM, and 50 μM, and then stabilized by incubation at 37° C. in a 5% CO2 incubator for 18 to 24 hours. FAM-labeled amyloid-beta (by Anaspec) was dissolved in cold PBS at a concentration of 5 μM, blocked from light, and stored in a refrigerator at 4° C. for 24 hours to prepare an oligomer. […] After 1 minute, trypan blue was removed, and the phagocytized oligomeric amyloid-beta was measured at an excitation wavelength of 485 nm/emission wavelength of 535 nm using a microplate reader capable of measuring fluorescence. […] After the incubation was completed, a washing process was performed thereon once with PBS, and the stained nuclei were measured at an excitation wavelength of 360 nm/emission wavelength of 465 nm using a microplate reader capable of measuring fluorescence.

For test [2], the system named is astrocyte. Briefly: Phagocytic activity of astrocyte on FAM-labeled amyloid-beta oligomer after TMEM176B inhibitor treatment. The test is classed as cell-based. As to conditions: inhibitor at 0, 3.703, 11.11, 33.33, 100 μM, FIG. 1. As to the method: In detail, BAYK8644 (by Merck) was used as a TMEM176B inhibitor, a method of confirming phagocytic activity of an astrocyte (by Abm) after treatment with the inhibitor was performed as follows. The astrocyte was cultured in a 96-well black cell culture plate (by SPL) using a PriGrow IV medium containing 10% FBS (by GIBCO), penicillin/streptomycin (by Thermo), human EGF 10 ng/mL (by Abm), and L-glutamine (by Abm), and incubation thereof was started at a density of 50,000 cells per well. Here, the TMEM176B inhibitor was treated at concentrations of 0 μM, 3.703 μM, 11.11 μM, 33.33 μM, and 100 μM, and the then the cells were stabilized by incubation at 37° C. in a 5% CO2 incubator for 18 to 24 hours. Fluorescent FAM-labeled amyloid-beta was dissolved in cold PBS (by Anaspec) at a concentration of 5 μM, blocked from light, and stored in a refrigerator at 4° C. for 24 hours to prepare amyloid-beta in oligomers. […] After 1 minute, trypan blue was removed by suction, and the phagocytized oligomeric amyloid-beta was measured at an excitation wavelength of 485 nm/emission wavelength of 535 nm using a microplate reader capable of measuring fluorescence. […] After the incubation was completed, a washing process was performed thereon once with PBS, and the stained nuclei were measured at an excitation wavelength of 360 nm/emission wavelength of 465 nm.

SMILES strings stand for the structures.

Turning to `COC(=O)C1=C(C)NC(C)=C([N+](=O)[O-])C1c1ccccc1C(F)(F)F` (centres unmarked) [TMEM176B inhibitor, BAYK8644], the “phagocytosis of oligomeric amyloid-beta” value in test [1] was “decreased in a concentration-dependent manner”. Also, the “phagocytosis function on the amyloid-beta oligomer” value in test [2] was “decreased the phagocytosis function”.

These data come from patent publication US20220265762A1, “COMPOSITION, COMPRISING TMEM176B OR AN EXPRESSION OR ACTIVITY REGULATOR THEREOF AS AN ACTIVE INGREDIENT, FOR PREVENTION OR TREATMENT OF DEGENERATIVE BRAIN DISEASE” (AMYLOID SOLUTION INC., priority 2019, published 2022).
